Measured values: PubChem BioAssay (NCI)
Where “and” joins values, the source holds several entries; their conditions need not be identical. Equal entries are not always repeated.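 Interpolation was linear, between the two tested concentrations surrounding the appropriate level; five concentrations were tested over 48 hours in 96-well plates. GI50 = concentration required for 50% inhibition of growth. TGI: total growth inhibition.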

Legend:
Test in all cases: inhibition of tumour cell growth, NCI panel, 48 h
[1] = tested on: A498 renal
[2] = tested on: A549 NSCLC
[3] = tested on: LOX IMVI melanoma
[4] = tested on: MCF7 breast
[5] = tested on: NCI/ADR-RES ovarian
[6] = tested on: RXF 393 renal
[7] = tested on: SK-MEL-2 melanoma
[8] = tested on: SK-MEL-5 melanoma
[9] = tested on: SNB-19 CNS
[10] = tested on: T-47D breast

Row | Compound | GI50 [1] [µM] | TGI [1] | TGI [2] [µM] | TGI [3] | GI50 [4] | TGI [4] | GI50 [5] [µM] | TGI [5] | TGI [6] | GI50 [7] [µM] | TGI [7] | GI50 [8] [µM] | TGI [8] | GI50 [9] [µM] | TGI [9] | GI50 [2] [µM] | GI50 [3] [µM] | GI50 [6] [µM] | GI50 [10] [µM] | TGI [10] [µM]
1 | CC(C)=CCC(OC(=O)C=C(C)C)C1=CC(=O)c2c(O)ccc(O)c2C1=O (centres undefined) | 20 | 39 µM and 5.39 µM | 18.7 | 0.894 µM and 3.07 µM | 2.09 µM and 0.877 µM | 7.86 µM and 2.93 µM | 3.68 | 29.5 µM and 3.16 µM | 0.533 µM and 0.467 µM | 2.97 | 12.1 µM and 5.85 µM | 4.15 | 14.4 µM and 1.59 µM | 21.9 | 40.2 µM and 15.3 µM |  |  |  |  | 
2 | Cc1ccc(S(=O)(=O)c2ccccc2[N+](=O)[O-])cc1 |  | > 100 µM | > 100 |  |  |  |  |  | > 100 µM |  | > 100 µM |  | > 100 µM |  |  |  |  |  |  | 
3 | CCCC(=O)N[C@H]1C2C3CC4C5CC(C42)C1(C)C53 (some centres undefined) |  | > 100 µM | > 100 | > 100 µM |  |  |  |  | > 100 µM |  | > 100 µM |  | > 100 µM |  | > 100 µM |  |  |  |  | 
4 | O=C(O)CCNCCCCNCCC(=O)O |  | > 100 µM | > 100 | > 100 µM |  |  |  |  | > 100 µM |  | > 100 µM |  | > 100 µM |  | > 100 µM |  |  |  |  | 
5 | N/N=C1\C(=O)N(c2ccc(Cl)cc2Cl)C(=O)C(=O)C1c1nc2ccccc2o1 (centres undefined) |  | > 100 µM | > 100 | > 100 µM |  |  |  |  |  |  | > 100 µM |  | > 100 µM |  | > 100 µM |  |  |  |  | 
6 | C[Si](C)(C)/C=C\CCO |  | > 100 µM | > 100 | > 100 µM |  |  |  |  | > 100 µM |  | > 100 µM |  | > 100 µM |  | > 100 µM |  |  |  |  | 
7 | COc1ccc(C(=O)NNc2nc(Cl)nc(N3CCN(C(c4ccccc4)c4ccccc4)CC3)n2)cc1 | 10.4 | 23.2 µM | 39.1 | 3.05 µM | > 100 µM | > 100 µM |  |  | 3.84 µM | 2.14 | 4.91 µM | 16.7 | 31.7 µM | 1.84 | 3.54 µM | 17.9 | 1.63 | 1.83 | 64 | > 100
8 | CCOc1c(N=Nc2ccccc2Cl)c(-c2ccccc2)nn1C(=S)S |  |  | > 100 | 46.1 µM |  | > 100 µM |  | > 100 µM | > 100 µM |  | > 100 µM |  | 57.9 µM |  | > 100 µM |  |  |  |  | > 100
9 | CC(C)(C)OC(=O)NCCCn1c2c(c3ccccc3c1=O)C(=O)c1ccccc1-2 | 46.1 | > 100 µM | > 100 | 43 µM | 15 µM | 39.4 µM | 6.69 | 98.6 µM |  | 49.3 | > 100 µM | 35.2 | > 100 µM | 12.1 | 29.6 µM | 41.9 | 6.98 |  | 29.6 | > 100
10 | Cc1cccc(C)c1NC(=O)CCc1nc(=S)[nH][nH]1 |  | > 100 µM | > 100 | > 100 µM |  |  |  |  | > 100 µM |  | > 100 µM |  |  |  | > 100 µM |  |  |  |  | 
11 | CCCCCCCCNCCC[C@@H](C)[C@H]1CC[C@H]2[C@@H]3[C@H](OCCCN)C[C@H]4C[C@H](OCCCN)CC[C@]4(C)[C@H]3C[C@H](OCCCN)[C@]12C | 21.3 | 54.5 µM | 8.81 | 3.54 µM |  |  | 1.93 | 5.27 µM | 16.4 µM | 3.75 | > 31.3 µM | 2.24 | 6.54 µM | 1.69 | 5.24 µM | 2.43 | 1.57 | 2.22 | 3.92 | > 26.7
12 | c1ccc2c(c1)oc1ccc3nsnc3c12 |  | > 100 µM | > 100 | > 10 µM |  |  |  |  | > 100 µM |  | > 100 µM |  | > 100 µM |  | > 100 µM |  |  |  |  | 
13 | CC1CCSC(N(C(=O)N(C)c2ccccc2)c2ccccc2)=N1 (centres undefined) |  | > 100 µM | > 100 | > 100 µM |  |  |  |  | > 100 µM |  | > 100 µM |  | > 100 µM |  | > 100 µM |  |  |  |  | 
14 | COC(=O)CC(NC(=O)OCc1ccccc1)C(C(=O)OCc1ccccc1)C(C)(OC)OC (centres undefined) |  | > 100 µM | 85.1 | 52.7 µM |  |  |  |  | 96.9 µM |  | 36.5 µM |  | 26.7 µM |  | > 100 µM |  |  |  |  | 
15 | CN1CCc2c1nc(-c1ccc(Cl)cc1)c1c2N(C)CC1 |  | 62.6 µM | > 100 | 22.5 µM |  |  |  |  | 43.9 µM |  | > 100 µM |  | 26.6 µM |  | > 100 µM |  |  |  |  | 
16 | Cc1cc(N=C2C=C(Br)C(=O)C(Br)=C2)cc(CN(CC(=O)O)CC(=O)O)c1O |  | > 100 µM | > 100 |  |  | > 100 µM |  | > 100 µM | > 100 µM |  | > 100 µM |  | > 100 µM |  | > 100 µM |  |  |  |  | > 100
17 | COc1ncnc(S(=O)(=O)c2ccc(N=C3C(=O)N(CN4CCN(c5cc6c(cc5F)c(=O)c(C(=O)O)cn6C5CC5)CC4)c4ccc(Cl)cc43)cc2)c1OC |  |  | > 50 | > 50 µM | 34.1 µM | > 50 µM | > 50 | > 50 µM | > 50 µM | > 50 | > 50 µM | 19.7 | > 50 µM | > 50 | > 50 µM | > 50 | 23.8 | > 50 | > 50 | > 50
18 | O=C(Nc1ccc(-c2nc(-c3cccc(OCCN4CCOCC4)c3)c(-c3ccnc(Br)c3)[nH]2)cc1)c1ccccc1 | 1.49 | 3.96 µM | > 100 |  | 0.74 µM | 3.14 µM | 5.2 | > 100 µM | 1.12 µM | 2.75 | > 100 µM | 1.77 | 3.21 µM | 2.19 | 9.07 µM | 2.25 |  | 0.309 | 2.22 | > 100
19 | COc1ccc(CCn2c(=O)c3ccccc3n(C)c2=O)cc1 |  | > 100 µM | > 100 |  |  |  |  |  |  |  | 85.6 µM |  | > 100 µM |  | > 100 µM |  |  |  |  | 
20 | NCCOCCOCCNc1nc(-c2ccc(Cl)cc2)nc(N2CCN(c3ccccn3)CC2)n1 | 1.33 | 7.71 µM |  |  |  |  | 3.66 | 16 µM | 5.76 µM |  |  | 1.71 | 3.19 µM |  |  |  |  | 2.28 | 3.09 | 9.94
